Assay [1] has as its system Ha-ras-transformed NIH/3T3 cells. As to the kind of experiment: Proliferation of transformed cells (CellTiter-Glo). In kind it is cell-based. The following applies: 50 μM PD 98059; Ha-ras-transformed or parental NIH/3T3 cells. The method, then: Cells were treated with vehicle, 50 μM SL0101, or 50 μM PD 98059 (PD 98059 is a MEK-specific inhibitor). Proliferation was measured using Promega CellTiter-Glo™ Luminescent cell viability assay.
(§1) Cell Culture. For proliferation studies cells were seeded at 2500 to 5000 cells per well in 96 well tissue culture plates in the appropriate medium as described by American Type Culture Collection. After 24 hr, the medium was replaced with medium containing compound or vehicle as indicated. Cell viability was measured at indicated time points using CellTiter-Glo™ assay reagent (Promega) according to manufacturer's protocol. For in vivo inhibition studies, cells were seeded at 2.5×10^5 cells/well in 12 well cell culture clusters. After 24 hr, the cells were serum starved for 24 hr then incubated with compound or vehicle for 3 hr prior to a 30 min PDB stimulation. Cells were lysed as previously described (J. Biol. Chem. 273, 13317-13323 (1998)). The lysates were normalized for total protein, electrophoresed and immunoblotted. For cell imaging, Ha-Ras-transformed NIH/3T3 cells were seeded on LABTEK II chamber slides (Nalge) at a density of 1×10^4 cells/well. After 24 hr, fresh medium was added the indicated compounds or vehicle. Images were taken 48 hr after treatment at a magnification of 20×.

A further assay deals with MCF-10A cells. As to the kind of experiment: Proliferation of MCF-10A cells (CellTiter-Glo). In kind it is cell-based. The method, then:
(§2) Cell viability was measured at indicated time points. Proliferation assays were conducted using CellTiter-Glo Luminescent Cell Viability Assay (Promega), performed 44 hrs after treatment for FIGS. 8A &B and at indicated points for FIG. 8C. The data are expressed relative to time 0.
as §1
For orientation: Cellular ATP, detected with luciferase, serves as a proxy for viable cell number.

The subject of the next assay is MCF-7 cells. Format: cell-based. On the procedure: as §2, §1
Another assay concerns the target T1, Msk1 (Homo sapiens, UniProt O75582).
T1 construct: purchased Upstate Biotechnology
Description: Msk1 kinase ELISA. In kind it is biochemical. The conditions noted are these: purified compounds. The method, then:
(§3) Kinase Assays. Glutathione-S-transferase (GST)-fusion protein (1 g) containing the sequence -[…] (SEQ ID NO: 3, for serine/threonine kinase assays) or -[…] (SEQ ID NO: 4, for tyrosine kinase assays) was adsorbed in the wells of LumiNunc 96-well polystyrene plates (MaxiSorp surface treatment). The wells were blocked with sterile 3% tryptone in phosphate buffered saline and stored at 4° C. for up to 6 months. Kinase (5 nM) in 70 μl of kinase buffer (5 mM -glycerophosphate pH 7.4, 25 mM HEPES pH 7.4, 1.5 mM DTT, 30 mM MgCl2, 0.15 M NaCl) was dispensed into each well. Compound at indicated concentrations or vehicle was added, and reactions were initiated by the addition of 30 μl of ATP for a final ATP concentration of 10 μM unless indicated otherwise. Reactions were terminated after 10 to 45 min by addition of 75 μl of 500 mM EDTA, pH 7.5. All assays measured the initial velocity of reaction. After extensive washing of wells, polyclonal phosphospecific antibody developed against the phosphopeptide and HRP-conjugated anti-rabbit antibody (211-035-109, Jackson ImmunoResearch Laboratories) were used to detect serine phosphorylation of the substrate. HRP-conjugated anti-phospho-tyrosine antibody (RC20, BD Transduction Laboratories) was used for phospho-tyrosine detection. His-tagged active Rsk and FAK were expressed in Sf9 cells and purified using NiNTA resin (Qiagen). Baculovirus was prepared using the Bac-to-Bac® baculovirus expression system (Invitrogen). PKA was bacterially expressed and activated as described (Anal. Biochem. 245, 115-122 (1997)). Active Msk1 and p70 S6 kinase was purchased from Upstate Biotechnology. Immunoprecipitation and kinase assays were performed as previously described (Poteet-Smith et al., J. Biol. Chem, 274, 22135-22138 (1999) using the immobilized GST-fusion proteins and ELISAs as above.
In general terms: ELISA stands for enzyme-linked immunosorbent assay.

Assay [2] addresses T2, Focal Adhesion Kinase (FAK) (Homo sapiens, UniProt Q05397).
T2 construct: the catalytic domain of the tyrosine kinase, Focal Adhesion Kinase (FAK); His; made in house; host or cells: Sf9 (baculovirus, Bac-to-Bac)
Description: FAK tyrosine kinase ELISA. In kind it is biochemical. The following applies: purified compounds.

In a further assay the target is T3, p70 S6K (Homo sapiens, UniProt P23443).
T3 construct: purchased Upstate Biotechnology
Description: p70 S6K kinase ELISA. Format: biochemical. The conditions noted are these: purified compounds. On the procedure:
as §3

For a further assay, the target named is T4, Rsk2 (Homo sapiens, UniProt P51812, Y707A).
T4 construct: His; made in house; host or cells: Sf9 (baculovirus, Bac-to-Bac)
Description: Rsk kinase ELISA with immobilized substrate and phosphospecific antibodies. In kind it is biochemical.

In a further assay the target is T5, protein kinase A (PKA) (Homo sapiens, UniProt P17612).
T5 construct: made in house; host or cells: bacteria
Description: PKA kinase ELISA. Format: biochemical. The following applies: purified compounds. On the procedure: as §3

Assay [3] relates to p140 phosphorylation in MCF-7 cells. As to the kind of experiment: PDB-induced p140 phosphorylation in MCF-7 cells (immunoblot). Format: cell-based, human. The following applies: 50 μM, 3 hr pre-incubation, 500 nM PDB 30 min. On the procedure: Cells were treated with 500 nM PDB for 30 min prior to lysis. Protein concentration of lysates was measured and lysates were electrophoresed, transferred and immunoblotted.
as §1
(In general: In western blotting, separated proteins are transferred to a membrane and probed.)

The mark [4] stands for this setting: in vitro, increasing concentrations of compound, read-out: IC50 for Rsk catalytic activity.

The structures appear in SMILES notation. Like-named read-outs stand apart in the source and are kept apart here.

T4 sequence (P51812 whole entry Y707A): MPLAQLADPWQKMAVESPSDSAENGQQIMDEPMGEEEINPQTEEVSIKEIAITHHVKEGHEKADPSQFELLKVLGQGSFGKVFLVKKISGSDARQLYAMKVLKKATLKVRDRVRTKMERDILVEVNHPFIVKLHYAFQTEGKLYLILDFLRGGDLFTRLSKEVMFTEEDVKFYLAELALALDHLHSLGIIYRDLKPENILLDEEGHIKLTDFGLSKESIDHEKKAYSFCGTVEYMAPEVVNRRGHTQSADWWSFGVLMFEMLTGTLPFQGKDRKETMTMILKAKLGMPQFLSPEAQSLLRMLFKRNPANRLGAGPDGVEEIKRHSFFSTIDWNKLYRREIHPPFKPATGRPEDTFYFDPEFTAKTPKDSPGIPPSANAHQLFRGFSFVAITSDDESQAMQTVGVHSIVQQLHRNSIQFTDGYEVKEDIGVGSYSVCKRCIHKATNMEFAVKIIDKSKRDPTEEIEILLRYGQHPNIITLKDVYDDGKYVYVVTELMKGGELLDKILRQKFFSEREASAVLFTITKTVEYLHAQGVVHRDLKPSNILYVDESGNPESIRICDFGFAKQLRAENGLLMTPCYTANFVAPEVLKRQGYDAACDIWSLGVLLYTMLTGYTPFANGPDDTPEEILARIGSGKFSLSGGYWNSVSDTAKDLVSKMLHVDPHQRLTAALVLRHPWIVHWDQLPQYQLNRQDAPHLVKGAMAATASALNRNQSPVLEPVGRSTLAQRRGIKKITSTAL
T2 sequence (Q05397 422-680 limits assumed, species assumed): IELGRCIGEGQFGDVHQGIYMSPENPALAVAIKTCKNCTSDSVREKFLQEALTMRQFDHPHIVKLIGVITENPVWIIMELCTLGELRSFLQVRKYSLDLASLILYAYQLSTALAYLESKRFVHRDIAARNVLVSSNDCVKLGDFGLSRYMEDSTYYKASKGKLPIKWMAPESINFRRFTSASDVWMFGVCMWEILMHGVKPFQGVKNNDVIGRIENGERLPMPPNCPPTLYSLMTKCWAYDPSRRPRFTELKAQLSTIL
T1 sequence (O75582 whole entry, species assumed): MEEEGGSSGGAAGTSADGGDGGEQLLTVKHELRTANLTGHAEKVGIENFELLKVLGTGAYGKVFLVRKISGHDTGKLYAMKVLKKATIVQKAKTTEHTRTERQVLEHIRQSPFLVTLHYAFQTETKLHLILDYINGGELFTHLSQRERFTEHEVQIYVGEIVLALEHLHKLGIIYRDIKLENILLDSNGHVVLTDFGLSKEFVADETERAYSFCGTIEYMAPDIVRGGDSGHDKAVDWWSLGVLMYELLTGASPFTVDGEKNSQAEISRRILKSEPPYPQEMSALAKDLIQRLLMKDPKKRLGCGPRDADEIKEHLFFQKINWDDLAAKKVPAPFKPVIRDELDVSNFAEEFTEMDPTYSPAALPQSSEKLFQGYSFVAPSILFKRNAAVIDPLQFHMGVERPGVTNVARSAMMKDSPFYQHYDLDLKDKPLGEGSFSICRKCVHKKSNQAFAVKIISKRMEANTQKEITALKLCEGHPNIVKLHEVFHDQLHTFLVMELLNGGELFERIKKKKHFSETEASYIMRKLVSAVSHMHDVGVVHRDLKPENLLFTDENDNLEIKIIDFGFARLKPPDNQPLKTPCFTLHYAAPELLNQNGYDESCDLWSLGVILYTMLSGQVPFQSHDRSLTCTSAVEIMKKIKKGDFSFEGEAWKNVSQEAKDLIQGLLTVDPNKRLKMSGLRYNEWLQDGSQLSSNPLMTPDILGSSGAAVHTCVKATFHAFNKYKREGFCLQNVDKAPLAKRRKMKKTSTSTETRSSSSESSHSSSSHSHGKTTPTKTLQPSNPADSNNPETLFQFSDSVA
T3 sequence (P23443 24-525): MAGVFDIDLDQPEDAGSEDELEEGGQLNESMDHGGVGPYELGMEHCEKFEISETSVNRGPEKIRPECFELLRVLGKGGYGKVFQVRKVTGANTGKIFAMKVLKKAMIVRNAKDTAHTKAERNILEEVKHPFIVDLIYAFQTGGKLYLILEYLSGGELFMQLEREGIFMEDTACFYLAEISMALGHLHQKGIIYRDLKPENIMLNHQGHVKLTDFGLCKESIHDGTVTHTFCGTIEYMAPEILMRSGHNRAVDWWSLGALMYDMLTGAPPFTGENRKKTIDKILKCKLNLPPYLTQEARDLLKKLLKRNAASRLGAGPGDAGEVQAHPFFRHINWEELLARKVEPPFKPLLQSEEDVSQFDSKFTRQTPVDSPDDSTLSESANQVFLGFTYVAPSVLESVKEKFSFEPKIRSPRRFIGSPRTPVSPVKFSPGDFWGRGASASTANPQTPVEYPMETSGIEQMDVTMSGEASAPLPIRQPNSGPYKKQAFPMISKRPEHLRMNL

As to `COc1cccc(-c2cc(=O)c3ccccc3o2)c1N` [PD 98059, reference compound], in assay [1], the “influence on the proliferation rate” value is “observed only when cells were incubated in the presence of low concentrations of fetal calf serum”.

For `Cn1cc(C2=C(c3cn(CCCSC(=N)N)c4ccccc34)C(=O)NC2=O)c2ccccc21` [Ro 318220, reference compound], in the assay with MCF-10A cells (500 nM), the “proliferation of MCF-10A cells” value was “attenuated proliferation”. In the assay on MCF-7 cells (500 nM), the “proliferation of MCF-7 cells” value is recorded as “attenuated proliferation”.

On to `CC(=O)OC1C(C)OC(Oc2c(-c3ccc(O)cc3)oc3cc(O)cc(O)c3c2=O)C(OC(C)=O)C1O` [SL0101-2, kaempferol 3-α-L-(2″,4″-diacetyl) rhamnopyranoside], for which the “inhibition of MSK” value at Msk1 is “do not inhibit”. Also, the “inhibition of FAK” value in assay [2] is on record as “do not inhibit”. In addition, the “inhibition of p70 S6 kinase” value on p70 S6K was “do not inhibit”. Besides, the concentration for half-maximal inhibition (IC50) at Rsk2 (setting [4]) was 580 nM. For the same molecule, at protein kinase A (PKA), the “inhibition of Protein Kinase A” value is listed as “do not inhibit”.

Consider `CC(=O)OC1C(C)OC(Oc2c(-c3ccc(O)cc3)oc3cc(O)cc(O)c3c2=O)C(O)C1O` [SL0101-3, kaempferol-3-α-L-(4″-acetyl) rhamnopyranoside], for which, at Msk1, the “inhibition of MSK” value was “do not inhibit”. In addition, the “inhibition of FAK” value in assay [2] is “do not inhibit”. In addition, the “inhibition of p70 S6 kinase” value at p70 S6K is “do not inhibit”. On Rsk2 (setting [4]), the IC50 was found to be 190 nM. In addition, on protein kinase A (PKA), the “inhibition of Protein Kinase A” value is “do not inhibit”.

As to `N#CC(=C(/N)Sc1ccccc1N)/C(C#N)=C(\N)Sc1ccccc1N` [U0126, reference compound], the “growth of MCF-10A cells” value with MCF-10A cells (50 μM, 44 hrs after treatment) was “halted proliferation”. For the same molecule, in [3], the “PDB-induced p140 phosphorylation” value is “abrogates”. Also, in the assay on MCF-7 cells (50 μM, 44 hrs after treatment), the “proliferation of MCF-7 cells” value was “halted proliferation”.

On to `O=c1c(O)c(-c2ccc(O)cc2)oc2cc(O)cc(O)c12` [kaempferol, reference compound], for which the “growth of MCF-10A cells” value in the assay with MCF-10A cells (concentration not given, same extent as MCF-7) is listed as “slows growth”. Further, at Rsk2 (in vitro kinase assay with immobilized substrate, read-out: IC50 for Rsk), the IC50 worked out at 15000 nM. Moreover, the “growth of MCF-7 cells” value in the assay with MCF-7 cells (concentration not given, same extent as MCF-10A) is given as “slows growth”.

A word on the IC50: it is the concentration at which inhibition is half-maximal.

(Values after patent US20050233985A1, “Rsk inhibitors and therapeutic uses thereof” (priority 2003, published 2005).)
